# Data as given in US6838253B2, “Regulation of intracellular glucocorticoid concentrations” (The University of Edinburgh, priority 1995, dated 2005).
# Legend:
# glucocorticoid receptors = molecular target: T1, glucocorticoid receptors (Homo sapiens, UniProt P04150); conditions: reference 29; cited from earlier work
# T1 sequence (P04150 1-777): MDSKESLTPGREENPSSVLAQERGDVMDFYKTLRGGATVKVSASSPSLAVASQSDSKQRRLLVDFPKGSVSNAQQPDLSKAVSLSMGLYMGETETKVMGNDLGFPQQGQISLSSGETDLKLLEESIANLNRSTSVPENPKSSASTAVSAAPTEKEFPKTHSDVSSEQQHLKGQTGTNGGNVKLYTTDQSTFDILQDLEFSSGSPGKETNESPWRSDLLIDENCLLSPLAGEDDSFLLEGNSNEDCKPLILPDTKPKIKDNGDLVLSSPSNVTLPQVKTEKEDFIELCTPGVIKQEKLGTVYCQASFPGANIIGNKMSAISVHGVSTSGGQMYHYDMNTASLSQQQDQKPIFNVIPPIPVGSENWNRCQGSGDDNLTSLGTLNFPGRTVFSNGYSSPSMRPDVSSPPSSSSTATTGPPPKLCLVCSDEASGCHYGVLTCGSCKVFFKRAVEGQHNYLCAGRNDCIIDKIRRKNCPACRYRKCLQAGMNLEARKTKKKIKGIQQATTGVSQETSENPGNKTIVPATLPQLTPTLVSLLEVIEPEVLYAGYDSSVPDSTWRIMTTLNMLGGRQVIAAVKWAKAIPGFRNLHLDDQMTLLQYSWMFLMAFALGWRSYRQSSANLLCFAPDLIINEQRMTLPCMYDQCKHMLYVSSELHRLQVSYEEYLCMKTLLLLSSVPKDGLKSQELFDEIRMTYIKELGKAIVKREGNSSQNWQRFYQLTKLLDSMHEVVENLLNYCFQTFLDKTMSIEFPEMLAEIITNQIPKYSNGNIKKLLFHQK
# [1] = molecular target: T2, hepatic 11β-reductase activity (Homo sapiens, UniProt P28845); test: conversion of oral cortisone to cortisol on first pass as index of 11β-reductase activity in vivo in man
# T2 construct: from tissue; host or cells: liver of human volunteers, in vivo
# Description: Consistent with the observations in animal tissues and cultured cells described above, we have established the relative activities of 11β-dehydrogenase and 11β-reductase in vivo in different organs in man by measuring the cortisol/cortisone ratio in plasma from selective venous catheterisations. In most organs the venous effluent contains cortisol and cortisone in a ratio of ˜10:1. However, in renal vein plasma the ratio is 3:1, while in hepatic vein plasma the ratio is 55:1, consistent with potent 11β-dehydrogenase activity due to 11β-HSD2 expression in the kidney and potent 11β-reductase 11β-HSD1 activity in the liver. Moreover, cortisone taken orally, and therefore delivered to the liver via the portal vein, is avidly converted on first pass to cortisol in the peripheral circulation. Using this index of 11β-reductase activity we have shown that, in addition to inhibiting renal 11β-dehydrogenase activity, carbenoxolone (but not glycyrrhetinic acid) inhibits hepatic 11β-reductase activity in vivo in man.
# [2] = thymic involution in mice; assay type: in vivo, mouse; conditions: wild-type control mice; homozygous mutant mice resistant
# Description: Homozygotes for the mutant allele are morphologically intact and fully fertile. No survival bias is conferred by the mutant allele. However, neither 11β-HSD1 mRNA nor enzyme activity (techniques as above) were detected in mutant homozygotes, and reduced mRNA and activity were detected in heterozygotes.
# rat hippocampal cells = test: kainic acid neurotoxicity, hippocampal cell survival; assay type: cell-based; conditions: for kainic acid neurotoxicity: pretreatment with steroid alone
# Description: To assess the influence of 11β-reductase activity on neurotoxicity, cells were exposed to kainic acid and cell survival determined.
# PEPCK mRNA = test: northern analysis of hepatic PEPCK mRNA in treated rats; assay type: in vivo, rat
# Description: (§1) Male Han Wistar rats (200-250 g) underwent gonadectomy and either bilateral adrenalectomy or sham-operation under halothane anaesthesia. For estradiol administration, silicone elastomer capsules (1.95 mm internal diameter, 3.125 mm external diameter) (Dow Corning Corporation, Midland, Mich., USA) containing 17β-estradiol (Sigma, Poole, UK) were implanted subcutaneously. For animals treated for 42 days with estradiol, the capsules were removed and replaced after 21 days. Control animals were implanted with blank capsules. Adrenalectomised rats were maintained on 0.9%. saline. Rats were killed 10, 21 or 42 days after surgery. Liver and hippocampus were removed and dissected on ice for assay of 11β-HSD activity and an aliquot of liver was frozen on dry ice and stored at −80° C. until extraction of RNA.
# Total RNA was extracted from liver tissue by the guanidinium thiocyanate method, as described and resuspended in diethylpyrocarbonate-treated water. RNA concentration and purity was assayed spectrophotometrically. 20 μg aliquots were separated on a 1.2% agarose gel containing 2% formaldehyde. RNA was blotted onto nitrocellulose membranes (Hybond-N, Amersham International, UK), prehybridized in 6 ml phosphate buffer (0.2 M NaH2PO4, 0.6 M NaH2PO4, 5 mM EDTA), 3 ml 20% SDS and 100 μg denatured herring testis DNA (Sigma, Poole, UK) for 2 h at 55° C. and hybridized at 55° C. overnight in the same solution containing rat 11β-HSD1 or PEPCK cDNA, labelled with ^32P-dCTP using a random primed DNA labelling kit (Boehringer Mannheim UK Ltd., Lewes, UK). Three 20 min washes were carried out at room temperature in 1×SSC (0.3 M NaCl, 0.03 M sodium citrate), 0.1% SDS followed by a stringent wash at 55° C. for 30 min in 0.3×SSC, 0.1% SDS. Filters were exposed to autoradiographic film for 1-4 days (adjusted to ensure the signal density was within the linear range). […] Optical density was determined using a computer-driven image analysis system (Seescan plc, Cambs, UK). Values were expressed as a percentage of control levels.
# 11β-HSD1 mRNA = test: northern analysis of hepatic 11β-HSD1 mRNA in treated rats; assay type: in vivo, rat
# Description: as §1
# Total RNA was extracted from liver tissue by the guanidinium thiocyanate method, as described and resuspended in diethylpyrocarbonate-treated water. RNA concentration and purity was assayed spectrophotometrically. 20 μg aliquots were separated on a 1.2% agarose gel containing 2% formaldehyde. […] Optical density was determined using a computer-driven image analysis system (Seescan plc, Cambs, UK). Values were expressed as a percentage of control levels.
# 11β-HSD = 11β-HSD activity in tissue homogenates of treated gonadectomised rats; assay type: in vivo, rat
# Description: as §1
# Tissues were homogenised in Krebs-Ringer bicarbonate buffer with 0.2% glucose, pH 7.4, and assayed as described previously. Homogenates (6.25 μg of liver protein, 250 μg of hippocampal protein) were incubated with 200 μM NADP (Sigma, Poole, UK) and 12 nM [^3H]-corticosterone (specific activity 84 Ci/mmol; Amersham International, Aylesbury, UK) in a total volume of 250 μl with […] 11β-dehydrogenase activity was quantified in this assay as a measure of active enzyme since 11β-reductase is unstable in homogenates. Steroids were extracted with ethyl acetate and separated by HPLC with on-line β courtier. 11β-HSD activity was expressed as conversion of corticosterone to 11-dehydrocorticosterone, after correction for apparent conversion in incubates without enzyme (<3%).
# [3] = fasting plasma glucose in rats after 14 days of subcutaneous treatment; assay type: in vivo, rat; conditions: 1, 3 or 10 mg daily s.c., male Wistar Hans rats
# Experimental: Intact male Wistar Hans rats of body weight 200-250 g were treated with daily subcutaneous injection of 1 ml of either 0.9% saline (vehicle) or carbenoxolone (made up to 1, 3, or 10 mg/ml in 0.9% saline) for 14 days. They were fasted from 4 pm and blood obtained by tail-nick at 9 am the next day. Plasma glucose was measured by a glucose oxidase method on a Beckman CX-3 autoanalyser.
# [4] = test system: corticosteroids receptors; conditions: reference 36; cited from earlier work
# 5β-reductase = molecular target: T3, 5β-reductase (Homo sapiens, UniProt P51857); conditions: reference 35; cited from earlier work
# T3 sequence (P51857 1-326): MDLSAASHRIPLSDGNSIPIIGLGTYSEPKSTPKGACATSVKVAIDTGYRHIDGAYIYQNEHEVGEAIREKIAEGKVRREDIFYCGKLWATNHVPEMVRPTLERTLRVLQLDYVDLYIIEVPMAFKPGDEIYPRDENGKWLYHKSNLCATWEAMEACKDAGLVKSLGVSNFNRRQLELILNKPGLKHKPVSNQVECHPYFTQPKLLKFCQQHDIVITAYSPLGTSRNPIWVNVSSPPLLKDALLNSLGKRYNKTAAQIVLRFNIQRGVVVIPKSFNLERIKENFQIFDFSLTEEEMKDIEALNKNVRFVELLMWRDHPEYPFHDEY
# 11β-reductase activity = molecular target: T4, 11β-reductase activity (Rattus norvegicus, UniProt P16232); test: 11β-reductase activity in whole primary fetal hippocampal cells in culture; assay type: cell-based; conditions: 10^−6M
# T4 construct: endogenous in cells; host or cells: primary cultures of fetal rat hippocampal cells
# Description: Hippocampi were dissected from Wistar rat embryos on day 18.5 of pregnancy and cultured in DMEM with supplements, as described. These cells expressed 11β-HSD1 mRNA, and homogenised cells performed either 11β-dehydrogenase or 11β-reductase activity.
# [5] = euglycaemic hyperinsulinaemic clamp study with forearm glucose uptake in healthy male volunteers; assay type: in vivo, human
# Experimental: Seven non-obese (Body Mass Index <25) healthy male Caucasian volunteers on no medication, aged 27-36 years, were given carbenoxolone (100 mg every 8 hours orally) or matched placebo for seven days in a randomised double-blind cross-over design, with phases separated by at least 4 weeks. On the seventh day of each phase euglycaemic hyperinsulinaemic clamp studies with measurement of forearm glucose uptake were performed, as described in detail in reference 16, the content of which is incorporated herein by reference.
# adipocytes = conditions: higher concentrations (mmol/l), without corticosteroid, reference 37; cited from earlier work
# [6] = 100 mg every 8 hours orally, seven days
# [7] = 100 mg every 8 hours orally, seven days, healthy men
# T2 sequence (P28845 whole entry): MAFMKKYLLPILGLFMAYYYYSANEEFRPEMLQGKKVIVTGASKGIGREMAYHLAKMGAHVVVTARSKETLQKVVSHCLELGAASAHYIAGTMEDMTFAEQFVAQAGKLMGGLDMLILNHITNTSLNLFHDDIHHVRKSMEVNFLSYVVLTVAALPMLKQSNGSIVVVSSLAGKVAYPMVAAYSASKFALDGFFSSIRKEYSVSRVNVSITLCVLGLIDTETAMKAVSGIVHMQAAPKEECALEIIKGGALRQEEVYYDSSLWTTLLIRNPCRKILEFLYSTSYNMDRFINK
# T4 sequence (P16232 whole entry): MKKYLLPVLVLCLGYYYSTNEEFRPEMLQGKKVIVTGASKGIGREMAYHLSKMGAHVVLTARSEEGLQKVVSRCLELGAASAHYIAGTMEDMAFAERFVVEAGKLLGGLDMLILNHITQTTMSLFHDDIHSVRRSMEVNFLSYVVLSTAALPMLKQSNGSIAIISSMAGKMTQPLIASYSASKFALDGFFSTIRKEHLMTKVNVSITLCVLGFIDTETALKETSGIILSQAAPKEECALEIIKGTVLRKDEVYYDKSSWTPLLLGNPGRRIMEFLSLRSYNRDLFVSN
structure (smiles),measurement,setting,value
C[C@]12CCC(=O)C=C1CC[C@@H]1[C@@H]2[C@@H](O)C[C@@]2(C)[C@H]1CC[C@]2(O)C(=O)CO [cortisol],affinity of glucocorticoid receptors relative to mineralocorticoid receptors,glucocorticoid receptors,10-40 times lower
CC1(C)[C@@H](O)CC[C@]2(C)[C@H]3C(=O)C=C4[C@@H]5C[C@@](C)(C(=O)O)CC[C@]5(C)CC[C@@]4(C)[C@]3(C)CC[C@@H]12 [glycyrrhetinic acid],effect on 11β-reductase in vivo,[1],no effect
C[C@]12CC(=O)[C@H]3[C@@H](CCC4=CC(=O)CC[C@@]43C)[C@@H]1CC[C@@H]2C(=O)CO [11-dehydrocorticosterone],thymic involution,[2],thymic involution seen
same,kainic acid neurotoxicity,rat hippocampal cells,potentiated
C[C@]12C[C@H](O)[C@H]3[C@@H](CCC4=CC(=O)CC[C@@]43C)[C@@H]1CC[C@@H]2C(=O)CO [corticosterone],kainic acid neurotoxicity,rat hippocampal cells,potentiated
"C[C@]12CC[C@@H]3c4ccc(O)cc4CC[C@H]3[C@@H]1CC[C@@H]2O [estradiol, 17β-estradiol]",PEPCK mRNA levels in adrenalectomised rats,"PEPCK mRNA; adrenalectomised, 21 days, compared with adrenalectomy alone",increased
same,hepatic PEPCK gene expression,"PEPCK mRNA; after 21 days, adrenally intact",decreased
same,PEPCK mRNA expression,PEPCK mRNA; after 42 days,significantly reduced
same,liver 11β-HSD1 mRNA in adrenalectomised rats,"11β-HSD1 mRNA; adrenalectomised, 21 days",reduced
same,hepatic 11β-HSD1 mRNA expression,"11β-HSD1 mRNA; after 21 and 42 days, gonadectomised male rats",undetectable levels
same,hepatic 11β-HSD activity,"11β-HSD; 10, 21 and 42 days, gonadectomised male rats",marked decreases
same,11β-HSD activity in the hippocampus,11β-HSD; 21 or 42 days,not altered
same,conversion of corticosterone to 11-dehydrocorticosterone in liver homogenates,"11β-HSD; 42 days of treatment, prolonged (60 min) incubation",12.2±14.7%
same,liver 11β-HSD1 activity in adrenalectomised rats,"11β-HSD; adrenalectomised, 21 days",reduced
"CC1(C)[C@@H](OC(=O)CCC(=O)O)CC[C@]2(C)[C@H]3C(=O)C=C4[C@@H]5C[C@@](C)(C(=O)O)CC[C@]5(C)CC[C@@]4(C)[C@]3(C)CC[C@@H]12 [carbenoxolone, 3β-(3-carboxypropionyloxy)-11-oxo-olean-2-en 30-oic acid]",fasting glucose concentrations,[3],dose-dependent fall
same,affinity for corticosteroids receptors in vitro,[4],low affinity
same,5β-reductase inhibition,5β-reductase,inhibits
same,11β-reductase activity in whole hippocampal cells,11β-reductase activity,almost abolished
same,blood pressure,[5]; [6],not elevated
same,forearm blood flow,[5]; [6],not elevated
same,fasting glucose concentration,[5]; [7],no change
same,fasting insulin concentration,[5]; [7],fall
same,"plasma renin, aldosterone, and potassium concentrations",[5]; consequent on renal effects,suppressed
same,peripheral glucose uptake as measured by forearm glucose uptake,"[5]; euglycaemic clamp, day 7, versus placebo",No difference was detected
same,effect on 11β-reductase in vivo,[1],inhibits
same,hepatic 11β-reductase activity in vivo in man,"[1]; oral cortisone converted to cortisol, man",inhibits
same,potentiating effect of 11-dehydrocorticosterone on kainic acid neurotoxicity,rat hippocampal cells; with 11-dehydrocorticosterone,protected the cells
same,effect of corticosterone on kainic acid neurotoxicity,rat hippocampal cells; with corticosterone,did not alter
same,action of insulin in adipocytes,adipocytes,antagonises
